# Target: T1, GLP-1R (Homo sapiens, UniProt P43220)
# T1 construct: host or cells: CHO cells
# Test: GLP-1R activation cAMP assay (Assay 1 or Assay 2)
# Format: cell-based
# Conditions: cAMP increase in CHO cells stably expressing GLP-1R; compounds run on one of the two cAMP assays
# How it was run: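 CHO cells stably expressing human GLP-1R were incubated 1 h in HBSS/20 mM HEPES/0.1% BSA, then exposed to 10-point agonist dilutions for 30 min at 37 °C. cAMP increase was measured with an HTRF Gs dynamic kit; EC50 from sigmoidal fit of response versus log concentration.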
# T1 sequence (P43220 24-463): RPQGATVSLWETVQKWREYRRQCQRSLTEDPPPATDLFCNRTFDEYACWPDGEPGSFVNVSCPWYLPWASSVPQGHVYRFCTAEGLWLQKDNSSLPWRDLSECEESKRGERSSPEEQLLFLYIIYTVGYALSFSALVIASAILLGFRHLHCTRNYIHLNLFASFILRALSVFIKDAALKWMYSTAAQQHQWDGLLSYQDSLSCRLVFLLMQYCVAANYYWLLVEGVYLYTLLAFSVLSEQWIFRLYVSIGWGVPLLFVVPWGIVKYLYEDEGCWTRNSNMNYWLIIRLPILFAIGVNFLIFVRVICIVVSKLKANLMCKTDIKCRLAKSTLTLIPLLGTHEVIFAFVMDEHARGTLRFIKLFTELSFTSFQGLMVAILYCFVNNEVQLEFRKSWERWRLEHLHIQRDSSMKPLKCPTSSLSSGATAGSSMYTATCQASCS
row,Compound,EC50 [nM]
1,"COCCn1c(Cc2cc(F)c(-c3cccc(OCc4ccc(-c5ccc(N6CCCC6)nc5)cc4F)n3)cc2F)nc2ccc(C(=O)O)cc21 [Example 228, 2-(2,5-difluoro-4-(6-((2-fluoro-4-(6-(pyrrolidin-1-yl)pyridin-3-yl)benzyl)oxy)pyridin-2-yl)benzyl)-1-(2-methoxyethyl)-1H-benzo[d]imidazole-6-carboxylic acid]",26
2,"NC(=O)c1nc(COc2cccc(-c3cc(F)c(Cc4nc5ccc(C(=O)O)cc5n4C[C@@H]4CCO4)cc3F)n2)cs1 [Example 8, (S)-2-(4-(6-((2-carbamoylthiazol-4-yl)methoxy)pyridin-2-yl)-2,5-difluorobenzyl)-1-(oxetan-2-ylmethyl)-1H-benzo[d]imidazole-6-carboxylic acid]",0.92
3,"N#CC1(NC(=O)c2cc(Cl)c(COc3cccc(-c4cc(F)c(Cc5nc6c(F)cc(C(=O)O)cc6n5C[C@@H]5CCO5)cc4F)n3)cn2)CCC1 [Example 190, (S)-2-(4-(6-((4-chloro-6-((1-cyanocyclobutyl)carbamoyl)pyridin-3-yl)methoxy)pyridin-2-yl)-2,5-difluorobenzyl)-4-fluoro-1-(oxetan-2-ylmethyl)-1H-benzo[d]imidazole-6-carboxylic acid]",0.2
4,"NC(=O)c1ccc(COc2nccc(-c3cc(F)c(Cc4nc5ccc(C(=O)O)cc5n4C[C@@H]4CCO4)cc3F)n2)c(F)c1 [Example 203, (S)-2-(4-(2-((4-carbamoyl-2-fluorobenzyl)oxy)pyrimidin-4-yl)-2,5-difluorobenzyl)-1-(oxetan-2-ylmethyl)-1H-benzo[d]imidazole-6-carboxylic acid]",1.1
5,"O=C(O)c1ccc2nc(Cc3cc(F)c(-c4cccc(OCc5cnc(C(=O)NC6CCC6)cc5F)n4)cc3F)n(C[C@@H]3CCO3)c2c1 [Example 246, (S)-2-(4-(6-((6-(cyclobutylcarbamoyl)-4-fluoropyridin-3-yl)methoxy)pyridin-2-yl)-2,5-difluorobenzyl)-1-(oxetan-2-ylmethyl)-1H-benzo[d]imidazole-6-carboxylic acid]",0.57
6,"O=C(O)c1ccc2nc(Cc3cc(F)c(-c4cccc(OCc5ncc(-c6cnn(C7COC7)c6)s5)n4)cc3F)n(C[C@@H]3CCO3)c2c1 [Example 80, (S)-2-(2,5-difluoro-4-(6-((5-(1-(oxetan-3-yl)-1H-pyrazol-4-yl)thiazol-2-yl)methoxy)pyridin-2-yl)benzyl)-1-(oxetan-2-ylmethyl)-1H-benzo[d]imidazole-6-carboxylic acid]",0.19
7,"Cn1cc(C#Cc2cnc(COc3cccc(-c4cc(F)c(Cc5nc6c(F)cc(C(=O)O)cc6n5C[C@@H]5CCO5)cc4F)n3)c(F)c2)cn1 [Example 392, (S)-2-(2,5-difluoro-4-(6-((3-fluoro-5-((1-methyl-1H-pyrazol-4-yl)ethynyl)pyridin-2-yl)methoxy)pyridin-2-yl)benzyl)-4-fluoro-1-(oxetan-2-ylmethyl)-1H-benzo[d]imidazole-6-carboxylic acid]",0.206
8,"CN1CC(n2cc(-c3ccc(COc4cccc(-c5cc(F)c(Cc6nc7ccc(C(=O)O)cc7n6C[C@@H]6CCO6)cc5F)n4)c(F)c3)nn2)C1 [Example 220, (S)-2-(2,5-difluoro-4-(6-((2-fluoro-4-(1-(1-methylazetidin-3-yl)-1H-1,2,3-triazol-4-yl)benzyl)oxy)pyridin-2-yl)benzyl)-1-(oxetan-2-ylmethyl)-1H-benzo[d]imidazole-6-carboxylic acid]",2.08
9,"CNC(=O)c1cc(Cl)c(COc2cccc(-c3cc(F)c(Cc4nc5ccc(C(=O)O)cc5n4C[C@@H]4CCO4)cc3F)c2)cn1 [Example 444, (S)-2-((3′-((4-chloro-6-(methylcarbamoyl)pyridin-3-yl)methoxy)-2,5-difluoro-[1,1′-biphenyl]-4-yl)methyl)-1-(oxetan-2-ylmethyl)-1H-benzo[d]imidazole-6-carboxylic acid]",0.433
10,"Cn1cc(C#Cc2cnc(COc3cccc(-c4cc(F)c(Cc5nc6ccc(C(=O)O)cc6n5C[C@@H]5CCO5)cc4F)n3)c(Cl)c2)cn1 [Example 302, (S)-2-(4-(6-((3-chloro-5-((1-methyl-1H-pyrazol-4-yl)ethynyl)pyridin-2-yl)methoxy)pyridin-2-yl)-2,5-difluorobenzyl)-1-(oxetan-2-ylmethyl)-1H-benzo[d]imidazole-6-carboxylic acid]",0.567
11,"NC(=O)c1ccc(COc2nccc(-c3cc(F)c(Cc4nc5ccc(C(=O)O)cc5n4C[C@@H]4CCO4)cc3F)n2)cn1 [Example 222, (S)-2-(4-(2-((6-carbamoylpyridin-3-yl)methoxy)pyrimidin-4-yl)-2,5-difluorobenzyl)-1-(oxetan-2-ylmethyl)-1H-benzo[d]imidazole-6-carboxylic acid]",3.59
12,"O=C(O)c1ccc2nc(Cc3cc(F)c(-c4cccc(OCc5cc6n(n5)CCC6)n4)cc3F)n(C[C@@H]3CCO3)c2c1 [Example 65, (S)-2-(4-(6-((5,6-dihydro-4H-pyrrolo[1,2-b]pyrazol-2-yl)methoxy)pyridin-2-yl)-2,5-difluorobenzyl)-1-(oxetan-2-ylmethyl)-1H-benzo[d]imidazole-6-carboxylic acid]",0.19
13,"CNC(=O)c1cc(Cl)c(COc2cc(-c3cc(F)c(Cc4nc5c(F)cc(C(=O)O)cc5n4C[C@@H]4CCO4)cc3F)ccc2F)cn1 [Example 388, (S)-2-((3′-((4-chloro-6-(methylcarbamoyl)pyridin-3-yl)methoxy)-2,4′,5-trifluoro-[1,1′-biphenyl]-4-yl)methyl)-4-fluoro-1-(oxetan-2-ylmethyl)-1H-benzo[d]imidazole-6-carboxylic acid]",0.186
14,"O=C(O)c1ccc2nc(Cc3cc(F)c(-c4cccc(OCc5ncc(C#Cc6cnn(C7CC7)c6)s5)n4)cc3F)n(C[C@@H]3CCO3)c2c1 [Example 118, (S)-2-(4-(6-((5-((1-cyclopropyl-1H-pyrazol-4-yl)ethynyl)thiazol-2-yl)methoxy)pyridin-2-yl)-2,5-difluorobenzyl)-1-(oxetan-2-ylmethyl)-1H-benzo[d]imidazole-6-carboxylic acid]",0.44
15,"Cn1nc(COc2cccc(-c3cc(F)c(Cc4nc5ccc(C(=O)O)cc5n4C[C@@H]4CCO4)cc3F)n2)cc1C(F)F [Example 40, (S)-2-(4-(6-((5-(difluoromethyl)-1-methyl-1H-pyrazol-3-yl)methoxy)pyridin-2-yl)-2,5-difluorobenzyl)-1-(oxetan-2-ylmethyl)-1H-benzo[d]imidazole-6-carboxylic acid]",0.83
16,"O=C(O)c1ccc2nc(Cc3cc(F)c(-c4cccc(OCc5ccc(C#Cc6cn[nH]c6)nc5)n4)cc3F)n(C[C@@H]3CCO3)c2c1 [Example 438, (S)-2-(4-(6-((6-((1H-pyrazol-4-yl)ethynyl)pyridin-3-yl)methoxy)pyridin-2-yl)-2,5-difluorobenzyl)-1-(oxetan-2-ylmethyl)-1H-benzo[d]imidazole-6-carboxylic acid]",0.335

# Now those with a lower EC50, led by results:
row,EC50 [nM],Compound
1,0.17,"CNC(=O)c1cc(F)c(COc2cccc(-c3cc(F)c(Cc4nc5ccc(C(=O)O)cc5n4C[C@@H]4CCO4)cc3F)n2)cn1 [Example 243, 2-[[2,5-difluoro-4-[6-[[4-fluoro-6-(methylcarbamoyl)-3-pyridyl]methoxy]-2-pyridyl]phenyl]methyl]-3-[[(2S)-oxetan-2-yl]methyl]benzimidazole-5-carboxylic acid]"
2,0.12,"NC(=O)c1cc(F)c(COc2cccc(-c3cc(F)c(Cc4nc5c(F)cc(C(=O)O)cc5n4C[C@@H]4CCO4)cc3F)n2)cn1 [Example 241, (S)-2-(4-(6-((6-carbamoyl-4-fluoropyridin-3-yl)methoxy)pyridin-2-yl)-2,5-difluorobenzyl)-4-fluoro-1-(oxetan-2-ylmethyl)-1H-benzo[d]imidazole-6-carboxylic acid]"
3,0.1,"O=C(O)c1ccc2nc(Cc3cc(F)c(-c4cccc(OCc5cnc(C(=O)NC6CC6)cc5F)n4)cc3F)n(C[C@@H]3CCO3)c2c1 [Example 245, (S)-2-(4-(6-((6-(cyclopropylcarbamoyl)-4-fluoropyridin-3-yl)methoxy)pyridin-2-yl)-2,5-difluorobenzyl)-1-(oxetan-2-ylmethyl)-1H-benzo[d]imidazole-6-carboxylic acid]"
4,0.1,"O=C(O)c1ccc2nc(Cc3cc(F)c(-c4cccc(OCc5ccc(-n6cc(C7CC7)nn6)nc5)n4)cc3F)n(C[C@@H]3CCO3)c2c1 [Example 212, (S)-2-(4-(6-((6-(4-cyclopropyl-1H-1,2,3-triazol-1-yl)pyridin-3-yl)methoxy)pyridin-2-yl)-2,5-difluorobenzyl)-1-(oxetan-2-ylmethyl)-1H-benzo[d]imidazole-6-carboxylic acid]"
5,0.08,"Cn1cc(-c2cnc(COc3cccc(-c4cc(F)c(Cc5nc6c(F)cc(C(=O)O)cc6n5C[C@@H]5CCO5)cc4F)n3)s2)cn1 [Example 87, (S)-2-(2,5-difluoro-4-(6-((5-(1-methyl-1H-pyrazol-4-yl)thiazol-2-yl)methoxy)pyridin-2-yl)benzyl)-4-fluoro-1-(oxetan-2-ylmethyl)-1H-benzo[d]imidazole-6-carboxylic acid]"
6,0.04,"CNC(=O)c1cc(Cl)c(COc2cccc(-c3cc(F)c(Cc4nc5c(F)cc(C(=O)O)cc5n4C[C@@H]4CCO4)cc3F)n2)cn1 [Example 198, (S)-2-(4-(6-((4-chloro-6-(methylcarbamoyl)pyridin-3-yl)methoxy)pyridin-2-yl)-2,5-difluorobenzyl)-4-fluoro-1-(oxetan-2-ylmethyl)-1H-benzo[d]imidazole-6-carboxylic acid]"
7,0.023,"CCOc1nnc(COc2nc(-c3cc(F)c(Cc4nc5c(F)cc(C(=O)O)cc5n4[C@@H]4COCC4(C)C)cc3F)ccc2F)s1 [Example 423, (S)-1-(4,4-dimethyltetrahydrofuran-3-yl)-2-(4-(6-((5-ethoxy-1,3,4-thiadiazol-2-yl)methoxy)-5-fluoropyridin-2-yl)-2,5-difluorobenzyl)-4-fluoro-1H-benzo[d]imidazole-6-carboxylic acid]"
